Source: the supplement of paper PMC4954754
± gives the uncertainty stated by the source.

Assays:
Conditions in all cases: 18 h
[1] = tested on: HEK293T-Rex XBP1-RLuc; assay: EC50 for XBP1-RLuc reporter activation
Method: (§1)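 Dose-response of hit compounds in HEK293T-Rex cells stably expressing ERSE-FLuc or XBP1-RLuc reporters, 18 hr treatment, 1536-well; luminescence normalised to 500 nM thapsigargin (100%) and DMSO (0%), fitted to give EC50 (M) and maximal activation; '>' marks EC50 above the top tested dose (~17 µM).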

[2] = tested on: HEK293T-Rex XBP1-RLuc; assay: maximal XBP1-RLuc activation from dose-response fit, relative to thapsigargin (% of thapsigargin); higher = stronger activation
Method: as §1

[3] = tested on: HEK293T-Rex ERSE-FLuc; assay: EC50 for ERSE-FLuc reporter activation
Method: as §1

[4] = tested on: HEK293T-Rex ERSE-FLuc; assay: maximal ERSE-FLuc activation from dose-response fit, relative to thapsigargin (% of thapsigargin); higher = stronger activation
Method: as §1

SMILES: O=C(Nc1nc2c(s1)CCCC2)c1cccc2ccccc12
- EC50 for XBP1-RLuc reporter activation [1]: > 18.2 µM
- maximal XBP1-RLuc activation [2]: 6.96 ± 1.1
- EC50 for ERSE-FLuc reporter activation [3]: > 18.2 µM
- maximal ERSE-FLuc activation [4]: 32.2 ± 1.6

SMILES: C/C(=N\NC(=O)c1n[nH]c2c1CCCC2)c1ccc2ccccc2c1
- EC50 for XBP1-RLuc reporter activation [1]: > 16.9 µM
- maximal XBP1-RLuc activation [2]: 8.52 ± 1
- EC50 for ERSE-FLuc reporter activation [3]: > 16.9 µM
- maximal ERSE-FLuc activation [4]: 23.2 ± 3.1

SMILES: COc1cccc(C(=O)Nc2nc3ccc(C)cc3s2)c1
- EC50 for XBP1-RLuc reporter activation [1]: > 20.6 µM
- maximal XBP1-RLuc activation [2]: 10.2 ± 2.3
- EC50 for ERSE-FLuc reporter activation [3]: > 20.6 µM
- maximal ERSE-FLuc activation [4]: 31.7 ± 6.6

SMILES: COc1ccc(C2=Nn3c(nnc3-c3ccc(OC)cc3)SC2)cc1
- EC50 for XBP1-RLuc reporter activation [1]: > 16.9 µM
- maximal XBP1-RLuc activation [2]: 16 ± 2.4
- EC50 for ERSE-FLuc reporter activation [3]: > 16.9 µM
- maximal ERSE-FLuc activation [4]: 17 ± 5.2

SMILES: N#CC1=C(N)Oc2c(ccc3ccccc23)C1c1ccccc1 (stereo not given)
- EC50 for XBP1-RLuc reporter activation [1]: > 16.9 µM
- maximal XBP1-RLuc activation [2]: 7.34 ± 1.6
- EC50 for ERSE-FLuc reporter activation [3]: > 16.9 µM
- maximal ERSE-FLuc activation [4]: 15.5 ± 0.4

SMILES: Cc1ccc(O)c(NC(=O)c2cc(C(C)C)on2)c1
- EC50 for XBP1-RLuc reporter activation [1]: > 16.9 µM
- maximal XBP1-RLuc activation [2]: 14.4 ± 1.7
- EC50 for ERSE-FLuc reporter activation [3]: > 16.9 µM
- maximal ERSE-FLuc activation [4]: 39.9 ± 7.2

SMILES: CCCNC(=O)c1cc(-c2ccc(F)cc2)on1
- EC50 for XBP1-RLuc reporter activation [1]: > 16.9 µM
- maximal XBP1-RLuc activation [2]: 11.7 ± 3.2
- EC50 for ERSE-FLuc reporter activation [3]: 12 µM
- maximal ERSE-FLuc activation [4]: 65.8 ± 6.4

SMILES: O=C1NC(=Nc2ccc(F)cc2)S/C1=C\c1ccc(O)c(O)c1
- EC50 for XBP1-RLuc reporter activation [1]: 12.4 µM
- maximal XBP1-RLuc activation [2]: 55.3 ± 2.5
- EC50 for ERSE-FLuc reporter activation [3]: 6.92 µM
- maximal ERSE-FLuc activation [4]: 85.9 ± 7.7

SMILES: O=C1N/C(=C/c2ccc(O)cc2)C(=O)N1c1ccccc1
- EC50 for XBP1-RLuc reporter activation [1]: 4.36 µM
- maximal XBP1-RLuc activation [2]: 76 ± 3.7
- EC50 for ERSE-FLuc reporter activation [3]: 3.42 µM
- maximal ERSE-FLuc activation [4]: 110 ± 11

SMILES: COc1ccc(/C=N/c2sc3c(c2C(N)=O)CCCC3)cc1
- EC50 for XBP1-RLuc reporter activation [1]: > 16.9 µM
- maximal XBP1-RLuc activation [2]: 4.94 ± 3.8
- EC50 for ERSE-FLuc reporter activation [3]: > 16.9 µM
- maximal ERSE-FLuc activation [4]: 20.9 ± 2

SMILES: CCOc1cc(/C=C2/NC(=O)N(Cc3ccc(F)cc3)C2=O)ccc1O
- EC50 for XBP1-RLuc reporter activation [1]: 11.9 µM
- maximal XBP1-RLuc activation [2]: 56.8 ± 0.68
- EC50 for ERSE-FLuc reporter activation [3]: > 16.9 µM
- maximal ERSE-FLuc activation [4]: 36.3 ± 4.1

SMILES: Cc1ccc2c(N)c(C(=O)c3ccc4c(c3)OCO4)sc2n1
- EC50 for XBP1-RLuc reporter activation [1]: > 16.9 µM
- maximal XBP1-RLuc activation [2]: 11.4 ± 3.8
- EC50 for ERSE-FLuc reporter activation [3]: > 16.9 µM
- maximal ERSE-FLuc activation [4]: 25.1 ± 2.7

SMILES: NC(=O)c1c(NC(=O)/C=C/c2ccccc2)sc2c1CCCCC2
- EC50 for XBP1-RLuc reporter activation [1]: > 16.9 µM
- maximal XBP1-RLuc activation [2]: 3.01 ± 2.8
- EC50 for ERSE-FLuc reporter activation [3]: > 16.9 µM
- maximal ERSE-FLuc activation [4]: 22.6 ± 3.1

SMILES: COC(=O)c1ccc(C(=O)Nc2ccccc2N)cc1
- EC50 for XBP1-RLuc reporter activation [1]: > 17.8 µM
- maximal XBP1-RLuc activation [2]: 28 ± 2.5
- EC50 for ERSE-FLuc reporter activation [3]: 9.08 µM
- maximal ERSE-FLuc activation [4]: 91.1 ± 14

SMILES: CC(=O)c1cccc(Nc2nc(-c3ccc(O)c(O)c3)cs2)c1
- EC50 for XBP1-RLuc reporter activation [1]: 13.5 µM
- maximal XBP1-RLuc activation [2]: 62.6 ± 15
- EC50 for ERSE-FLuc reporter activation [3]: 9.07 µM
- maximal ERSE-FLuc activation [4]: 87.3 ± 28

SMILES: O=C(N/N=C/c1cccc(Cl)c1Cl)c1ccccc1O
- EC50 for XBP1-RLuc reporter activation [1]: > 16.9 µM
- maximal XBP1-RLuc activation [2]: 2.04 ± 0.65
- EC50 for ERSE-FLuc reporter activation [3]: > 16.9 µM
- maximal ERSE-FLuc activation [4]: 6.19 ± 0.61

SMILES: O=C1/C(=C/c2ccc(O)c(O)c2)SC(=S)N1c1ccc(O)cc1
- EC50 for XBP1-RLuc reporter activation [1]: > 16.9 µM
- maximal XBP1-RLuc activation [2]: 35.5 ± 3.5
- EC50 for ERSE-FLuc reporter activation [3]: 12.4 µM
- maximal ERSE-FLuc activation [4]: 77.1 ± 17

SMILES: N#CC1=C(N)Oc2c(ccc3ccccc23)C1c1ccsc1 (stereo not given)
- EC50 for XBP1-RLuc reporter activation [1]: > 18.3 µM
- maximal XBP1-RLuc activation [2]: 5.3 ± 5
- EC50 for ERSE-FLuc reporter activation [3]: > 18.3 µM
- maximal ERSE-FLuc activation [4]: 21.2 ± 5.6

SMILES: Cc1cc(C)c2nc3sc(C(=O)N4CCCCC4)c(N)c3cc2c1
- EC50 for XBP1-RLuc reporter activation [1]: > 16.9 µM
- maximal XBP1-RLuc activation [2]: 13.4 ± 1.4
- EC50 for ERSE-FLuc reporter activation [3]: > 16.9 µM
- maximal ERSE-FLuc activation [4]: 34 ± 5.5

SMILES: O=C(N/N=C/c1ccc(O)c(O)c1)c1ccc(Br)cc1
- EC50 for XBP1-RLuc reporter activation [1]: 16.8 µM
- maximal XBP1-RLuc activation [2]: 50.1 ± 4.6
- EC50 for ERSE-FLuc reporter activation [3]: 16 µM
- maximal ERSE-FLuc activation [4]: 51.2 ± 4.4
